Measurements taken from paper PMC9046087, “Structural basis of tethered agonism of the adhesion GPCRs ADGRD1 and ADGRF1” (Nature, 2022).
Ends that are not written are not given here.

Experiments:
Experiment in all cases: BRET assay using TRUPATH biosensors, Gi activation of ADGRF1
Type in all cases: cell-based
ADGRF1 [1] = biological target: T1, ADGRF1 (Homo sapiens, UniProt Q5T601, F641A); conditions: ADGRF1 F641^2.64bA
T1 construct: Flag (N); expressed in transfected cells; host or cells: HEK293F
Procedure: (§1) To study the synthetic stalk peptide-induced G protein activation of ADGRD1 and ADGRF1, a BRET assay using TRUPATH biosensors was conducted to measure the proximal interaction between RLuc8 fused to the Gα subunit and GFP2 fused to the Gγ subunit. The TRUPATH suite of biosensors was obtained from Addgene (Addgene kit no. 1000000163) as a gift from B. Roth, including GαsS-RLuc8, Gαi1-RLuc8, Gβ3 and Gγ9-GFP2 as previously described.
(§2) The wild-type or mutant ADGRD1 and ADGRF1 were transiently co-transfected with plasmids encoding Gα-RLuc8 (GαsS-RLuc8 for Gs activation assay; Gαi1-RLuc8 for Gi activation assay), Gβ3 and Gγ9-GFP2 at a ratio of 2:1:1:1 (receptor plasmid, 800 ng; G protein subunit plasmids, 400 ng for each) in 2 ml HEK293F cells at a density of 1.2 × 10^6 cells per ml. Cell cultivation and receptor surface expression measurement were performed as described above. The cells were plated into 96-well white plates (40,000 cells per well) in 60 μl of assay buffer and incubated at 37 °C for 30 min. Then 10 μl of freshly prepared 50 μM coelenterazine 400a (Nanolight Technologies) was added. […] The cells were stimulated with 30 μl of synthetic stalk peptide at different concentrations and the BRET signals were monitored continuously five times. The last measurements were used in data analysis. The BRET ratios were calculated as the ratio of the GFP2 emission to RLuc8 emission.

ADGRF1 [2] = biological target: T2, ADGRF1 (Homo sapiens, UniProt Q5T601, G702Y); conditions: ADGRF1 G702^4.45bY, n = 3
T2 construct: Flag (N); expressed in transfected cells; host or cells: HEK293F
Procedure: as §1, §2

ADGRF1 [3] = biological target: T3, ADGRF1 (Homo sapiens, UniProt Q5T601, G801A); conditions: ADGRF1 G801^6.50bA
T3 construct: Flag (N); expressed in transfected cells; host or cells: HEK293F
Procedure: as §1, §2

ADGRF1 [4] = biological target: T4, ADGRF1 (Homo sapiens, UniProt Q5T601, H820A); conditions: ADGRF1 H820^7.39bA
T4 construct: Flag (N); expressed in transfected cells; host or cells: HEK293F
Procedure: as §1, §2

ADGRF1 [5] = biological target: T5, ADGRF1 (Homo sapiens, UniProt Q5T601, L678A); conditions: ADGRF1 L678^3.50bA
T5 construct: Flag (N); expressed in transfected cells; host or cells: HEK293F
Procedure: as §1, §2

ADGRF1 [6] = biological target: T6, ADGRF1 (Homo sapiens, UniProt Q5T601, L681A); conditions: ADGRF1 L681^3.53bA
T6 construct: Flag (N); expressed in transfected cells; host or cells: HEK293F
Procedure: as §1, §2

ADGRF1 [7] = biological target: T7, ADGRF1 (Homo sapiens, UniProt Q5T601, L681E); conditions: ADGRF1 L681^3.53bE
T7 construct: Flag (N); expressed in transfected cells; host or cells: HEK293F
Procedure: as §1, §2

ADGRF1 [8] = biological target: T8, ADGRF1 (Homo sapiens, UniProt Q5T601, L681H); conditions: ADGRF1 L681^3.53bH
T8 construct: Flag (N); expressed in transfected cells; host or cells: HEK293F
Procedure: as §1, §2

ADGRF1 [9] = biological target: T9, ADGRF1 (Homo sapiens, UniProt Q5T601, L752A); conditions: ADGRF1 L752^5.44bA
T9 construct: Flag (N); expressed in transfected cells; host or cells: HEK293F
Procedure: as §1, §2

ADGRF1 [10] = biological target: T10, ADGRF1 (Homo sapiens, UniProt Q5T601, L764A); conditions: ADGRF1 L764^5.56bA, n = 3
T10 construct: Flag (N); expressed in transfected cells; host or cells: HEK293F
Procedure: as §1, §2

ADGRF1 [11] = biological target: T11, ADGRF1 (Homo sapiens, UniProt Q5T601, L799A); conditions: ADGRF1 L799^6.48bA
T11 construct: Flag (N); expressed in transfected cells; host or cells: HEK293F
Procedure: as §1, §2

ADGRF1 [12] = biological target: T12, ADGRF1 (Homo sapiens, UniProt Q5T601, M675A); conditions: ADGRF1 M675^3.47bA
T12 construct: Flag (N); expressed in transfected cells; host or cells: HEK293F
Procedure: as §1, §2

ADGRF1 [13] = biological target: T13, ADGRF1 (Homo sapiens, UniProt Q5T601, N827A); conditions: ADGRF1 N827^7.46bA
T13 construct: Flag (N); expressed in transfected cells; host or cells: HEK293F
Procedure: as §1, §2

ADGRF1 [14] = biological target: T14, ADGRF1 (Homo sapiens, UniProt Q5T601, V689A); conditions: ADGRF1 V689^ICL2A
T14 construct: Flag (N); expressed in transfected cells; host or cells: HEK293F
T14 sequence (Q5T601 20-910 V689A): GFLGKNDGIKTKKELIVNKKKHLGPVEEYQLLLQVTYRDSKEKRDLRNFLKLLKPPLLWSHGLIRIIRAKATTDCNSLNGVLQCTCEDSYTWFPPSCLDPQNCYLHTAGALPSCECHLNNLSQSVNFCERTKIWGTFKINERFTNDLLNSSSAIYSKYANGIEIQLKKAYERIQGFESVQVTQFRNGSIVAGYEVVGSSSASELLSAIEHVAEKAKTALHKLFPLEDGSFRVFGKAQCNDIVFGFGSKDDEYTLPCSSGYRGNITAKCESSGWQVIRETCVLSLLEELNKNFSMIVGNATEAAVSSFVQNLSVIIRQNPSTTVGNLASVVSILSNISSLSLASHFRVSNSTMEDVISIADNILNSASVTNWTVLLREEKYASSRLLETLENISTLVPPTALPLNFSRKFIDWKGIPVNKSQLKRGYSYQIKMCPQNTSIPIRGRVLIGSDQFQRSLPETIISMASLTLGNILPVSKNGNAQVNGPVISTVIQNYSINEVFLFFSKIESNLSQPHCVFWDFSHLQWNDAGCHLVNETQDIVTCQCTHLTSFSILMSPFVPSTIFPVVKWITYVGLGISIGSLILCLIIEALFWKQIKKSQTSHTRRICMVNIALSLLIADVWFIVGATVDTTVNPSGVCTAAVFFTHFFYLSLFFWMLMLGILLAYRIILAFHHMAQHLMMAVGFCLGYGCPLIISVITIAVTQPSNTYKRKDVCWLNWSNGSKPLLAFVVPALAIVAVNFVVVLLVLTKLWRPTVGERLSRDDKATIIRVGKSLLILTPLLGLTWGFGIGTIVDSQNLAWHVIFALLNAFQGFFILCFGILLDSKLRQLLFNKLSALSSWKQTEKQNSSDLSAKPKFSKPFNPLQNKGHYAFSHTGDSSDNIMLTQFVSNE
Procedure: as §1, §2

[15] = n = 3, read-out: pEC50 (mean ± s.e.m.) (converted)

T2 sequence (Q5T601 20-910 G702Y): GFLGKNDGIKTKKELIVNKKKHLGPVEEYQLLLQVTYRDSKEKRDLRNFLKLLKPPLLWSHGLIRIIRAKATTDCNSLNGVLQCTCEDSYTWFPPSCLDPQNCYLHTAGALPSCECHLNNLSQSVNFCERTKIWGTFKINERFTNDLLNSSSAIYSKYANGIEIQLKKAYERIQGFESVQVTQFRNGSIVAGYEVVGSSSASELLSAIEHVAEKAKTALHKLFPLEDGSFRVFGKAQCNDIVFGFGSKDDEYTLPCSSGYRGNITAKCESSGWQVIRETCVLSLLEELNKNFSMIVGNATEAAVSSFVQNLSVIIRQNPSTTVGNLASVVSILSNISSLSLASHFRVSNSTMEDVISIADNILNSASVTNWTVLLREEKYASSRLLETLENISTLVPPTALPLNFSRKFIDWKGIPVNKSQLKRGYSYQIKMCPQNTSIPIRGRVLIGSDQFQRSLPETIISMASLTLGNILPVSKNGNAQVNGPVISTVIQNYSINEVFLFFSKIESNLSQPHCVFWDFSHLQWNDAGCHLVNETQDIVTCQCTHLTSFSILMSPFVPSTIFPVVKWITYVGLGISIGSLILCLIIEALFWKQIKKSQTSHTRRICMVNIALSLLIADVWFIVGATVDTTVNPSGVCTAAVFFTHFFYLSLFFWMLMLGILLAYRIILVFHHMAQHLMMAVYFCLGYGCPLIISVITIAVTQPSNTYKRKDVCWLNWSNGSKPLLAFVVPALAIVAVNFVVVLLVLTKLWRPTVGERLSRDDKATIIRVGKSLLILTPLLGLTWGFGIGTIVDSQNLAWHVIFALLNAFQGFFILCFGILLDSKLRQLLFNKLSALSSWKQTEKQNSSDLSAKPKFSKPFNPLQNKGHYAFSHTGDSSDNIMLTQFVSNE
T3 sequence (Q5T601 20-910 G801A): as the sequence (Q5T601 20-910 G702Y) above, with Y683G, G782A counted along it
T1 sequence (Q5T601 20-910 F641A): as the sequence (Q5T601 20-910 G702Y) above, with F622A, Y683G counted along it
T9 sequence (Q5T601 20-910 L752A): as the sequence (Q5T601 20-910 G702Y) above, with Y683G, L733A counted along it
T10 sequence (Q5T601 20-910 L764A): as the sequence (Q5T601 20-910 G702Y) above, with Y683G, L745A counted along it
T11 sequence (Q5T601 20-910 L799A): as the sequence (Q5T601 20-910 G702Y) above, with Y683G, L780A counted along it
T13 sequence (Q5T601 20-910 N827A): as the sequence (Q5T601 20-910 G702Y) above, with Y683G, N808A counted along it
T12 sequence (Q5T601 20-910 M675A): as the sequence (Q5T601 20-910 G702Y) above, with M656A, Y683G counted along it
T4 sequence (Q5T601 20-910 H820A): as the sequence (Q5T601 20-910 G702Y) above, with Y683G, H801A counted along it
T8 sequence (Q5T601 20-910 L681H): as the sequence (Q5T601 20-910 G702Y) above, with L662H, Y683G counted along it
T7 sequence (Q5T601 20-910 L681E): as the sequence (Q5T601 20-910 G702Y) above, with L662E, Y683G counted along it
T6 sequence (Q5T601 20-910 L681A): as the sequence (Q5T601 20-910 G702Y) above, with L662A, Y683G counted along it
T5 sequence (Q5T601 20-910 L678A): as the sequence (Q5T601 20-910 G702Y) above, with L659A, Y683G counted along it

Emax (mean ± s.e.m.) (ADGRF1 [1]; n = 3): 82 ± 15 % of WT | EC50 (ADGRF1 [1]; [15]): 204 nM | EC50 (ADGRF1 [2]): 1170 nM | Emax (mean ± s.e.m.) (ADGRF1 [2]): 94 ± 16 % of WT | Emax (mean ± s.e.m.) (ADGRF1 [3]; n = 3): 127 ± 13 % of WT | EC50 (ADGRF1 [3]; [15]): 347 nM | Emax (mean ± s.e.m.) (ADGRF1 [4]; n = 3): 126 ± 12 % of WT | EC50 (ADGRF1 [4]; [15]): 275 nM | Emax (mean ± s.e.m.) (ADGRF1 [5]; n = 3): 58 ± 7 % of WT | EC50 (ADGRF1 [5]; [15]): 129 nM | Emax (mean ± s.e.m.) (ADGRF1 [6]; n = 3): 59 ± 10 % of WT | EC50 (ADGRF1 [6]; [15]): 120 nM | Emax (mean ± s.e.m.) (ADGRF1 [7]; n = 3): 130 ± 12 % of WT | EC50 (ADGRF1 [7]; [15]): 794 nM | Emax (mean ± s.e.m.) (ADGRF1 [8]; n = 4): 103 ± 13 % of WT | EC50 (ADGRF1 [8]; n = 4, read-out: pEC50 (mean ± s.e.m.) (converted)): 347 nM | Emax (mean ± s.e.m.) (ADGRF1 [9]; n = 3): 90 ± 15 % of WT | EC50 (ADGRF1 [9]; [15]): 513 nM | EC50 (ADGRF1 [10]): 1300 nM | Emax (mean ± s.e.m.) (ADGRF1 [10]): 86 ± 14 % of WT | Emax (mean ± s.e.m.) (ADGRF1 [11]; n = 3): 109 ± 11 % of WT | EC50 (ADGRF1 [11]; [15]): 380 nM | Emax (mean ± s.e.m.) (ADGRF1 [12]; n = 3): 81 ± 13 % of WT | EC50 (ADGRF1 [12]; [15]): 427 nM | Emax (mean ± s.e.m.) (ADGRF1 [13]; n = 3): 122 ± 13 % of WT | EC50 (ADGRF1 [13]; [15]): 389 nM | Emax (mean ± s.e.m.) (ADGRF1 [14]; n = 3): 67 ± 7 % of WT | EC50 (ADGRF1 [14]; [15]): 263 nM
Sequence: TSFSILMSPFVP [pF1]
